Earlier results in patent publication US20100016430A1, “MODIFIED COCONUT OILS WITH BROAD ANTIMICROBIAL SPECTRUM” (MALAYSIAN AGRICULTERAL RESEARCH AND DEVELOPMENT IN, priority 2005, published 2010).

Tests used:
C. albicans = conditions: Bergsson et al. 2001
C. trachomatis = conditions: for Effect on C. trachomatis: 10 mM concentration
H. pylori = conditions: 10 mM for 30 min at 37° C.
coliform = conditions: 250 and 500 ppm in naturally contaminated cottage cheese
Pseudomonas spp = conditions: 250 and 500 ppm in naturally contaminated cottage cheese

Q: With `CCCCCCCCCC(=O)O` [capric acid] as the molecule, how does the “Killing of C. albicans / antimicrobial effect” value (C. albicans) read?
A: The value was “fastest and most effective killing”.

Q: What does the source list for `CCCCCCCCCCCC(=O)O` [lauric acid]?
A: Inactivation of C. trachomatis (C. trachomatis; 5 mM for 5 min): greater than 100,000 fold; Killing of C. albicans / antimicrobial effect (C. albicans): fastest and most effective killing

Q: With `CCCCCCCCCC(=O)OCC(O)CO` (stereo not drawn) [monocaprin] as the molecule, how does the “Activity against H. pylori” value (H. pylori) read?
A: Its value is “most active”.

Q: For `CCCCCCCC(=O)OCC(O)CO` (stereo not drawn) [monocaprylin], which “Effect on C. trachomatis” value (C. trachomatis) is on record?
A: The value was “negligible effect”.

Q: For `CCCCCCCCCCCC(=O)OCC(O)CO` (stereo not drawn) [monolaurin], which “Effect on C. trachomatis” value (C. trachomatis) is on record?
A: The value was “negligible effect”.

Q: What about the Inhibition of coliform (coliform) of the same molecule?
A: The Inhibition of coliform was “more than 90%”.

Q: And the “Inhibition of Pseudomonas spp” value (Pseudomonas spp)?
A: Its value is “more than 90%”.

Q: And the “Activity against H. pylori” value (H. pylori)?
A: The value was “most active”.

Q: With `CCCCCCCCCCCCCC(=O)O` [myristic acid] as the molecule, how does the “Killing of C. albicans / antimicrobial effect” value (C. albicans) read?
A: The value was “do not shown antimicrobial effect”.

Q: For `CCCCCCCC/C=C\CCCCCCCC(=O)O` [oleic acid], which “Killing of C. albicans / antimicrobial effect” value (C. albicans) is on record?
A: Its value is “do not shown antimicrobial effect”.

Q: With `CCCCCC/C=C\CCCCCCCC(=O)O` [palmitoleic acid] as the molecule, how does the “Killing of C. albicans / antimicrobial effect” value (C. albicans) read?
A: Its value is “do not shown antimicrobial effect”.
